This is an account of results in patent US20210009542A1 (Calico Life Sciences LLC, priority 2018, published 2021).

Molecules are shown by their SMILES. Like-named read-outs stand apart in the source and are kept apart here. Some results are limits rather than exact numbers.

The target of assay [1] is T1, His tagged PTPN2 (TC45) protein (Homo sapiens, UniProt P17706).
T1 construct: made in house
T1 sequence (P17706 with tags, fused parts or gaps isoform P17706-2): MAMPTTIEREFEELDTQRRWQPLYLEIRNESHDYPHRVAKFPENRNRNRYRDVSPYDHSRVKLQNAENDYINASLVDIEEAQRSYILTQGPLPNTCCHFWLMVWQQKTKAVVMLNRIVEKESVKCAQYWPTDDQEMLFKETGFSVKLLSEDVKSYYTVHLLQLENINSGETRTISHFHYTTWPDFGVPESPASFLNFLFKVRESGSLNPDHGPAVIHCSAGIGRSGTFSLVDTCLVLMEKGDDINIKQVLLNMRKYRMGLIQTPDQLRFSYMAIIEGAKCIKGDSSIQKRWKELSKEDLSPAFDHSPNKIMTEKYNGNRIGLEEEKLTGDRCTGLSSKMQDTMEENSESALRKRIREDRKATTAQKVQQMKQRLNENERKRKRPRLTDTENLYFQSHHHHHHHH
As to the kind of experiment: Mobility shift assay (MSA) for potency of PTPN2 inhibitors. In kind it is biochemical. Conditions: read-out: PTPN2 MSA IC50. The method, boiled down:
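His-tagged PTPN2 TC45 (0.5 nM) was preincubated with compound (12-point, 1:3) for 10 min at room temperature in 50 mM HEPES pH 7.5, 1 mM EGTA, 10 mM EDTA, 0.01% Tween 20, 2 mM DTT. OG488-labelled phospho-insulin-receptor peptide ([…]) was then added for 10 min. After quenching, dephosphorylation was measured by microfluidic mobility shift and IC50 derived from % inhibition.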

The test system of assay [2] is B16F10 mouse melanoma cells. Briefly: B16F10 IFNγ-induced cellular growth inhibition assay. In kind it is cell-based. The following applies: Mus musculus, B16-F10, 33 μM compound. As for the experimental part: B16F10 mouse melanoma cells (ATCC Cat ^#CRL-6475, Manassas, Va.) were seeded at a density of 500 cells per well in a 384-well clear bottom plate (Corning Cat^# 3765, Corning, N.Y.) in 25 μL total volume of DMEM+10% FBS (Sigma Cat ^#D6429 and Sigma Cat ^#F4135, St. Louis, Mo.). Cells were allowed to adhere overnight at 37° C.+5% CO2. On the following day, 12.5 μL of mouse IFNγ (RD systems Cat485-MI/CF, Minneapolis, Minn.) was added to half of the plate (columns 13-24) at a concentration of 2 ng/mL for a final assay concentration of 0.5 ng/mL of IFNγ. Media only (12.5 μL of DMEM+10% FBS) was added to the remainder of the plate (columns 1-12). Next, compounds resuspended in DMSO (Sigma Cat ^#D2650) at 100 mM were diluted in semi-log dilutions in DMSO ranging from 100 mM to 0.001 mM and DMSO only controls were included. The compound/DMSO dilutions were further diluted 1:250 in DMEM+10% FBS, and 12.5 μL of these dilutions were added in triplicates to cells of both treatment arms (with and without IFNγ). Final compound concentrations ranged from 100 μM to 0.001 μM with a final DMSO concentration of 0.1%. Compounds were only dosed in the inner 240 wells, avoiding the outer 2-well perimeter of the plate to minimize edge effects. Finally, the plate was loaded into an IncuCyte® S3 Live Cell Analysis System (Essen Bioscience-Sartorius, Ann Arbor, Mich.) maintained in a 37° C.+5% CO2 incubator, allowed to equilibrate for 2 hours, and imaged every 6 hours for 5 days. Confluence over time for compound dilutions in the presence and absence of IFNγ was measured. Growth inhibition values were obtained when the “DMSO/no IFNγ” control reached confluence >95%. At these time points, the percent growth inhibition of each compound at the indicated concentration was calculated relative to the “DMSO/with IFNγ” control.

[3] abbreviates: +0.5 ng/mL IFNγ, relative to DMSO control, read-out: % B16F10 growth inhibition (+0.5 ng/mL IFNγ) @ 33 μM.
[4] abbreviates: no IFNγ, read-out: % B16F10 growth inhibition (no IFNγ) @ 33 μM.

The IC50 is the concentration at which inhibition is half-maximal. `CCOCCCOc1ccc2cc(O)c(N3CC(=O)NS3(=O)=O)c(F)c2c1` [Compound 216, 5-[7-(3-ethoxypropoxy)-1-fluoro-3-hydroxynaphthalen-2-yl]-1λ^6,2,5-thiadiazolidine-1,1,3-trione]: the IC50 in assay [1] fell in the range of 1 to 10 nM. For the same compound, the inhibition at 33 µM in assay [2] (setting [3]) was 25 to 59%; in assay [2] (setting [4]) it was under 25%.
The corresponding values for `O=C1CN(c2c(O)cc3ccc(OCCOC4CCC4)cc3c2F)S(=O)(=O)N1` [Compound 214, 5-{7-[2-(cyclobutyloxy)ethoxy]-1-fluoro-3-hydroxynaphthalen-2-yl}-1λ^6,2,5-thiadiazolidine-1,1,3-trione] are 1 to 10 nM, 60 to 90% and under 25%.
For `O=C1CN(c2c(O)cc3ccc(C4CN(S(=O)(=O)C5CC5)C4)cc3c2F)S(=O)(=O)N1` [Compound 206, 5-{7-[1-(cyclopropanesulfonyl)azetidin-3-yl]-1-fluoro-3-hydroxynaphthalen-2-yl}-1λ^6,2,5-thiadiazolidine-1,1,3-trione] the same measures were 1 to 10 nM, 60 to 90% and under 25%.
In the case of `COc1ccc2c(Br)c(O)c(N3CC(=O)NS3(=O)=O)c(F)c2c1` [Compound 243, 5-(4-bromo-1-fluoro-3-hydroxy-7-methoxynaphthalen-2-yl)-1λ^6,2,5-thiadiazolidine-1,1,3-trione], the IC50 in assay [1] lay within 10 to 100 nM. Also, the figures for the inhibition at 33 µM in assay [2] (setting [3]) and in assay [2] (setting [4]) were 25 to 59% and under 25%, respectively.
The corresponding values for `CC(C)OCCOc1ccc2cc(O)c(N3CC(=O)NS3(=O)=O)c(F)c2c1` [Compound 215, 5-(1-fluoro-3-hydroxy-7-{2-[(propan-2-yl)oxy]ethoxy}naphthalen-2-yl)-1λ^6,2,5-thiadiazolidine-1,1,3-trione] are 1 to 10 nM, 60 to 90% and under 25%.
The corresponding values for `O=C1CN(c2c(O)cc3ccc(NCCC4CC4)cc3c2F)S(=O)(=O)N1` [Compound 224, 5-{7-[(2-cyclopropylethyl)amino]-1-fluoro-3-hydroxynaphthalen-2-yl}-1λ^6,2,5-thiadiazolidine-1,1,3-trione] are 1 to 10 nM, over 90% and under 25%.
For the compound `COCCNc1ccc2cc(O)c(N3CC(=O)NS3(=O)=O)c(F)c2c1` [Compound 179, 5-{1-fluoro-3-hydroxy-7-[(2-methoxyethyl)amino]naphthalen-2-yl}-1λ^6,2,5-thiadiazolidine-1,1,3-trione], the half-inhibitory concentration (IC50) in assay [1] fell in the range of 10 to 100 nM. Moreover, the inhibition at 33 µM in assay [2] (setting [3]) is over 90%; in assay [2] (setting [4]) it was under 25%.
For `N#CCC1(COc2ccc3cc(O)c(N4CC(=O)NS4(=O)=O)c(F)c3c2)CC1` [Compound 130, [1-({[8-fluoro-6-hydroxy-7-(1,1,4-trioxo-1λ^6,2,5-thiadiazolidin-2-yl)naphthalen-2-yl]oxy}methyl)cyclopropyl]acetonitrile] the same measures were under 1 nM, 60 to 90% and under 25%.
For `COC/C=C/c1ccc2cc(O)c(N3CC(=O)NS3(=O)=O)c(F)c2c1` [Compound 245, 5-{1-fluoro-3-hydroxy-7-[(1E)-3-methoxyprop-1-en-1-yl]naphthalen-2-yl}-1λ^6,2,5-thiadiazolidine-1,1,3-trione] the same measures were 1 to 10 nM, 60 to 90% and under 25%.
Consider `COCCCOc1ccc2cc(O)c(N3CC(=O)NS3(=O)=O)c(F)c2c1` [Compound 247, 5-[1-fluoro-3-hydroxy-7-(3-methoxypropoxy)naphthalen-2-yl]-1λ^6,2,5-thiadiazolidine-1,1,3-trione], for which, in assay [1], the IC50 lay within 1 to 10 nM. Besides, the values for the inhibition at 33 µM in assay [2] (setting [3]) and in assay [2] (setting [4]) were 60 to 90% and under 25%, respectively.
For `C[C@H](O)CCOc1ccc2cc(O)c(N3CC(=O)NS3(=O)=O)c(F)c2c1` [Compound 147, 5-{1-fluoro-3-hydroxy-7-[(3S)-3-hydroxybutoxy]naphthalen-2-yl}-1λ^6,2,5-thiadiazolidine-1,1,3-trione] the same measures were under 1 nM, over 90% and under 25%.
As to `CP(C)(=O)c1ccc(-c2ccc3cc(O)c(N4CC(=O)NS4(=O)=O)c(F)c3c2)s1` [Compound 141, 5-{7-[5-(dimethylphosphoryl)thiophen-2-yl]-1-fluoro-3-hydroxynaphthalen-2-yl}-1λ^6,2,5-thiadiazolidine-1,1,3-trione], in assay [1], the IC50 is under 1 nM. In addition, the inhibition at 33 µM in assay [2] (setting [3]) was 60 to 90%; in assay [2] (setting [4]) it was under 25%.
As to `N#CCCCNc1ccc2cc(O)c(N3CC(=O)NS3(=O)=O)c(F)c2c1` [Compound 174, 4-{[8-fluoro-6-hydroxy-7-(1,1,4-trioxo-1λ^6,2,5-thiadiazolidin-2-yl)naphthalen-2-yl]amino}butanenitrile], in assay [1], the concentration for half-maximal inhibition (IC50) was in the range of 1 to 10 nM. The inhibition at 33 µM in assay [2] (setting [3]) was over 90%; in assay [2] (setting [4]), under 25%.
The corresponding values for `O=C1CN(c2c(O)cc3ccc(OCCNS(=O)(=O)C4CC4)cc3c2F)S(=O)(=O)N1` [Compound 127, N-(2-{[8-fluoro-6-hydroxy-7-(1,1,4-trioxo-1λ^6,2,5-thiadiazolidin-2-yl)naphthalen-2-yl]oxy}ethyl)cyclopropanesulfonamide] are under 1 nM, 60 to 90% and under 25%.
Regarding `O=C1CN(c2c(O)cc3ccc(-c4cnn(S(=O)(=O)C5CC5)c4)cc3c2F)S(=O)(=O)N1` [Compound 303, 5-{7-[1-(cyclopropanesulfonyl)-1H-pyrazol-4-yl]-1-fluoro-3-hydroxynaphthalen-2-yl}-1λ^6,2,5-thiadiazolidine-1,1,3-trione], in assay [1], the half-maximal inhibitory concentration (IC50) is under 1 nM. Also, the inhibition at 33 µM in assay [2] (setting [3]) is 60 to 90%; in assay [2] (setting [4]), under 25%.
For `CC(C)CS(=O)(=O)N1CC=C(c2ccc3cc(O)c(N4CC(=O)NS4(=O)=O)c(F)c3c2)C1` [Compound 300, 5-{1-fluoro-3-hydroxy-7-[1-(2-methylpropane-1-sulfonyl)-2,5-dihydro-1H-pyrrol-3-yl]naphthalen-2-yl}-1λ^6,2,5-thiadiazolidine-1,1,3-trione] the same measures were under 1 nM, 60 to 90% and under 25%.
Regarding `CC(C)S(=O)(=O)N1CC=C(c2ccc3cc(O)c(N4CC(=O)NS4(=O)=O)c(F)c3c2)C1` [Compound 296, 5-{1-fluoro-3-hydroxy-7-[1-(propane-2-sulfonyl)-2,5-dihydro-1H-pyrrol-3-yl]naphthalen-2-yl}-1λ^6,2,5-thiadiazolidine-1,1,3-trione], the IC50 in assay [1] is under 1 nM. Moreover, the inhibition at 33 µM in assay [2] (setting [3]) was over 90%; in assay [2] (setting [4]), under 25%.
For the compound `CC(C)NC(=O)Oc1ccc2cc(O)c(N3CC(=O)NS3(=O)=O)c(F)c2c1` [Compound 103, 8-fluoro-6-hydroxy-7-(1,1,4-trioxo-1λ^6,2,5-thiadiazolidin-2-yl)naphthalen-2-yl propan-2-ylcarbamate], in assay [1], the 50% inhibitory concentration (IC50) was 1 to 10 nM. Besides, the inhibition at 33 µM in assay [2] (setting [3]) was 60 to 90%; in assay [2] (setting [4]), under 25%.
